Patent US7820624B2, “Peptide ligands” (ICH Productions Limited, priority 2003, dated 2010)

Key:
[1] = test system: mouse Sca1-positive stem cells; assay: Adenoviral transduction of mouse Sca1+ve stem cells; type: cell-based
Protocol: Mouse bone marrow cells were isolated as above and Sca1+ve cells were isolated using MACs Sca1 microbeads (Miltenyi Biotec, Bisley, U.K.). These cells were plated at 7×10^4 cells/500 μl in RPMI with Glutamax-1 containing 30% FCS and penicillin/streptomycin and the following cytokines murine SCF (50 ng/ml; Preprotech, London, UK), IL-6 (20 ng/ml; Preprotech, London, UK) and Flt3-L (10 ng/ml) (R&D Systems, Oxford, U. K.).
(§1) Day 6 dendritic cells (see Example 1(v) above), or mouse bone marrow derived dendritic cells or mouse Sca1+ve stem cells, see (i) and (ii) above, were plated at 5×10^4 cells per well in a 48 well plate in 500 μl complete medium and allowed to settle for 3 hours at 37° C. Transductions were carried out in complete media, with virus being added at 100,000 viral particles/cell for 24 hours. Cells were harvested by scraping, spun down at 650 g (2000 rpm) for 5 min, resuspended in 300 μl PBS, and kept on ice before analysis. Viral transduction as determined by percentage of GFP positive cells was measured by FACS analysis. […] Cells were then washed twice in PBS, trypsinised, triplicate wells pooled, spun down at 350×g for 5 min and resuspended in 300 μl PBS before analysis by flow cytometry where cell viability was to be measured, 10 μl 7AAD was added just prior to analysis.

[2] = test system: primary mouse dendritic cells; assay: Adenoviral transduction of mouse dendritic cells; type: cell-based; settings: bone marrow derived DCs
Protocol: Mouse dendritic cells were prepared from whole bone marrow flushed from the marrow cavities of the femur and tibia of 5-7 week old A/J mice and cultured in Hepes buffered RPMI+Glutamax (InVitrogen, Paisley, U. K.) supplemented with 10% FCS, penicillin/streptomycin and 20 ng/ml recombinant GM-CSF. Cytokines were added to the same concentration on day 3 and the dendritic cells isolated from the floating cell fraction by MACs CD11c microbeads (Miltenyi Biotec, Bisley, U. K.) on day 6.
as §1

[3] = test system: HMEC-1 cells; assay: Adenoviral transduction of HMEC-1 cells; type: cell-based, human; settings: 10,000 particles per cell in OptiMEM; listed as peptide A
Protocol: (§2) Day 6 dendritic cells (see Example 1(v) above), or mouse bone marrow derived dendritic cells or mouse Sca1+ve stem cells, see (i) and (ii) above, were plated at 5×10^4 cells per well in a 48 well plate in 500 μl complete medium and allowed to settle for 3 hours at 37° C. Transductions were carried out in complete media, with virus being added at 100,000 viral particles/cell for 24 hours. Cells were harvested by scraping, spun down at 650 g (2000 rpm) for 5 min, resuspended in 300 μl PBS, and kept on ice before analysis. Viral transduction as determined by percentage of GFP positive cells was measured by FACS analysis. To measure percentage viability, 10 μl of 7-amino-actinomycin D (7AAD; Sigma, Poole, Dorset) was added immediately prior to analysis. Viral transduction of macrophages was carried out at 10,000 particles/cell in medium containing 2.5% FCS. […] Cells were then washed twice in PBS, trypsinised, triplicate wells pooled, spun down at 350×g for 5 min and resuspended in 300 μl PBS before analysis by flow cytometry where cell viability was to be measured, 10 μl 7AAD was added just prior to analysis.
(§3) For transduction of these other cell types, cells were seeded overnight at 5×10^4 cells per well in 24 well plates in the appropriate media. […] Where cell viability was to be measured, 10 μl 7-amino-actinomycin D (7AAD; Sigma, Poole, Dorset) was added just prior to analysis. […]

[4] = test system: HepG2 cells; assay: Adenoviral transduction of HepG2 cells; type: cell-based, human; settings: 10,000 particles per cell in OptiMEM; listed as peptide A
Protocol: as §2, §3

[5] = test system: day 4 immature dendritic cells; assay: Phenotyping of LID-transfected dendritic cells (HLA-DR, CD86); type: cell-based, human; settings: LID with lipofectin, peptide:DNA 7:1
Protocol: Immature day 4 dendritic cells were transfected with LID complex with peptide A at a charge ratio 7:1 to the DNA (plasmid pEGFP-N1), with lipofectin added at a weight ratio of 0.75 to the DNA for 4 hours in RPMI before incubating in complete medium with cytokines for 24 hours. As a control, dendritic cells were incubated in complete medium for 24 hours (immature Dendritic cells) Cells were then harvested by scraping and stained for the presence of maturation markers as follows: a minimum of 5×10^4 cells in a volume of less than 2 ml medium were added to the recommended amount of antibody and incubated for 20 min on ice. 2 ml of ice-cold PBS was added before centrifugation at 300×g for 5 min at 4° C. The supernatant was flicked off and the pellet resuspended in 300 μl ice cold 1% paraformaldehyde-PBS. Cells from each sample were stained with antibodies to HLA-DR, and CD86 and isotype matched control antibodies. Cells were analysed by flow cytometry using a Epics XL (Beckman Coulter, High Wycombe, UK.) and the EXPO32 analysis software (Beckman Coulter).

Substance | Transduction efficiency [1] [%] | Transduction efficiency [2] [%] | Transduction, % cells transduced [3] [%] | Transduction, % cells transduced [4] [%] | HLA-DR and CD86 on transfected cells [5]
SHVKLNS (Synthetic peptide binding to dendritic cells) [listing 1 of 2 here] | 5.4 | 71.7 | 95.7 | 88.5 | –
SHVKLNS (Synthetic peptide binding to dendritic cells) [listing 2 of 2 here] | – | – | – | – | upregulated CD86 and HLA-DR
